Laboratory results reported in PMC5908784, “Extracellular loops 2 and 3 of the calcitonin receptor selectively modify agonist binding and efficacy” (Biochemical Pharmacology, 2018).
Substitutions are numbered along the chain they refer to. Where no end group is shown, it is not given here.

Key:
Assay in all cases: Homologous whole cell competition binding
Conditions in all cases: homologous competition of 125I-sCT(8-32), whole cells, mean ± S.E.M., SEM
[1] = molecular target: T1, hCTR S364A (Homo sapiens, UniProt P30988, S364A)
T1 construct: c-Myc (N); expressed in transfected cells
T1 sequence (P30988 25-474 S364A): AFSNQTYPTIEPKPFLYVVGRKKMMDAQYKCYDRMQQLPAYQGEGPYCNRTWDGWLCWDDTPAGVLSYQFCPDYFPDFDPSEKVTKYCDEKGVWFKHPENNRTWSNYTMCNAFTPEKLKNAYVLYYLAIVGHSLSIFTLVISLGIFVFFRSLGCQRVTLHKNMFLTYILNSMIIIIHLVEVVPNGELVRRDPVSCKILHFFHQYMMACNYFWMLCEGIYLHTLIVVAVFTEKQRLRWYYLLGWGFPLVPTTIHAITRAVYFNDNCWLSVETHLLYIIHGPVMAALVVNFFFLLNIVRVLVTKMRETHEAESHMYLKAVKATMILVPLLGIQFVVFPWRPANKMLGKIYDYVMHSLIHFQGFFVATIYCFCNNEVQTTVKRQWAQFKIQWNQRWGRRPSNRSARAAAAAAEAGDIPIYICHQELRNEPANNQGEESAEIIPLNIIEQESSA
Outline: (§1)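 Cells were seeded, cultured overnight, then exposed overnight at 4 °C to two concentrations of ^125I-sCT(8-32) with increasing unlabelled sCT(8-32). Unbound ligand was washed off before counting. Affinity is given as pKi after radioligand occupancy correction.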

[2] = molecular target: T2, hCTR T280A (Homo sapiens, UniProt P30988, T280A)
T2 construct: expressed in transfected cells
T2 sequence (P30988 25-474 T280A): T1 sequence (P30988 25-474 S364A) with T256A, A340S
Outline: as §1

[3] = molecular target: T3, hCTR V283A (Homo sapiens, UniProt P30988, V283A)
T3 construct: expressed in transfected cells
T3 sequence (P30988 25-474 V283A): T1 sequence (P30988 25-474 S364A) with V259A, A340S
Outline: as §1

[4] = molecular target: T4, hCTR L298A (Homo sapiens, UniProt P30988, L298A)
T4 construct: c-Myc (N); expressed in transfected cells
T4 sequence (P30988 25-474 L298A): T1 sequence (P30988 25-474 S364A) with L274A, A340S
Outline: as §1

Ki [1]: 0.191 nM
Ki [2]: 0.245 nM
Ki [3]: 0.214 nM
Ki [4]: 0.148 nM
Substance: VLGKLSQELHKLQTYPRTNTGSGTP-NH2 [sCT(8-32)]
